Assay results from ChEMBL document CHEMBL1127662, “3-Alkoxybenzo[b]thiophene-2-carboxamides as inhibitors of neutrophil-endothelial cell adhesion” (J Med Chem, 1994).

The molecules below were run on HUVEC (assay: (§1) Tested for adhesion of neutrophils to human umbilical vein endothelial cell at the dose of 100 uM).
Assay type: functional, cell-based

SMILES	Inhibition	IC50
COc1ccc2c(c1)C(OC(C)C)=C(C(N)=O)S2(=O)=O	< 4%	
CC(C)Oc1c(C(N)=O)sc2ccc(O)cc12		6.4 µM
COc1ccc2c(c1)c(OC(C)C)c(C(N)=O)[s+]2[O-] (stereo not drawn)		8.7 µM
CNC(=O)c1sc2ccc(OC)cc2c1OC(C)C		15 µM
CC(C)Oc1c(C(N)=O)sc2ccc([N+](=O)[O-])cc12	40%	

These molecules were tested on HUVEC (assay: as §1).
Assay type: functional

SMILES	inhibition at 100 µM
COc1cccc2c(OC(C)C)c(C(N)=O)sc12	35%
COc1ccc2sc(C(N)=O)c(OCc3ccccc3)c2c1	57%
COc1ccc2sc(C(=O)Nc3ccccc3)c(OC(C)C)c2c1	12%
CC(C)Oc1c(C(N)=O)sc2ccccc12	60%
COc1ccc2sc(C(N)=O)c(OC)c2c1	60%
COc1ccc2sc(C(N)=O)c(Oc3ccccc3)c2c1	59%
COc1ccc2c(OC(C)C)c(C(N)=O)sc2c1	24%
CC(C)Oc1c(C(N)=O)sc2ccc(OCc3ccccc3)cc12	< 4%
CCNC(=O)c1sc2ccc(OC)cc2c1OC(C)C	64%
CC(C)Oc1c(C(N)=O)sc2ccc(Cl)cc12	72%
Cc1ccc2sc(C(N)=O)c(OC(C)C)c2c1	61%
CC(C)Oc1c(C(N)=O)sc2ccc(N)cc12	49%
COc1ccc2sc(C(N)=O)c(OC(C)(C)C)c2c1	97%
